Entries after “also recorded” stand apart in the source; their conditions may differ.
Tested on: human precision cut liver slices (PCLS)
Assay: Gene expression in PCLS by RT-PCR
Format: cell-based
Conditions: collagen1α1, αSMA, TIMP1, IL-6, MCP-1
Description: PCLS were obtained from 5 human donors who underwent resection of liver cancer. Replicate slices were collected from healthy margins of the resections and cultured for 4 or 6 days depending on the experimental protocol. In the Nonstimulation Protocol slices were cultured for 6 days and treated for the entire period with DMSO vehicle or 5 μM CRV431. In the Stimulation Protocol slices were rested for 1 day and then administered the cytokines, TGFβ and PDGF-BB, for 3 days to stimulate inflammation and fibrosis. DMSO vehicle, CRV431 (1 and 5 μM), Alk5i (10 μM), obeticholic acid (5 μM), elafibranor (5 μM), resmetirom (5 μM), and Aramchol (5 μM) were administered individually as drug treatments in the Stimulation Protocol concurrent with TGFβ+PDGF-BB. Culture medium treatments were replaced daily.
(c) Gene expression by RT-PCR. RNA was isolated from duplicate liver slices per treatment at the end of the experiments and evaluated by RT-PCR for 5 markers of inflammation and fibrosis: MCP-1, IL-6, TIMP1, αSMA, and collagen 1α1. β actin was used as a reference gene to calculate relative levels of each target gene RNA. […] Results are shown in FIG. 1C (gene expression by RT-PCR).

CC[C@@H]1NC(=O)[C@H]([C@H](O)[C@H](C)CCCCCCNC(C)=O)N(C)C(=O)[C@H](C(C)C)N(C)C(=O)[C@H](CC(C)C)N(C)C(=O)[C@H](CC(C)C)N(C)C(=O)[C@@H](C)NC(=O)[C@H](C)NC(=O)[C@H](CC(C)C)N(C)C(=O)[C@H](C(C)C)NC(=O)[C@H](CC(C)C)N(C)C(=O)[C@@H](C)N(C)C1=O [CRV431]
RNA levels of inflammation and fibrosis markers by qRT-PCR: reductions in RNA levels of collagen1α1, αSMA, TIMP1, IL-6, and MCP-1; also recorded: decreased the mean daily secretion and gene expression of all markers

— US20210269479A1, “USE OF CY[…] FOR TREATING CANCER” (Hepion Pharmaceuticals, Inc., priority 2020, published 2021)
